Measurements from publication PMC7990704 (Nature chemical biology, 2021).
Where two headings read alike, the source gives them in different places.

Key:
Cdk2 [1] = target: T1, Cdk2 (Homo sapiens, UniProt P24941, A93C/C118A/C177S/R157C)
cells = settings: cited from earlier work
pCdk4:cyclinD = pCdk4:cyclinD (Homo sapiens, UniProt P11802); assay: γ-33P radioactivity kinase assay with RB as substrate and 10 μM ATP; assay type: biochemical
Cdk2 [2] = target: T1, Cdk2; assay type: binding
Cdk2 [3] = target: Cdk2 (Homo sapiens, UniProt P24941, A93C/C118A/C177S/S46C)
Cdk2 [4] = system: Cdk2; parameters: species or system Human

Chain of pCdk4:cyclinD (P11802 whole entry): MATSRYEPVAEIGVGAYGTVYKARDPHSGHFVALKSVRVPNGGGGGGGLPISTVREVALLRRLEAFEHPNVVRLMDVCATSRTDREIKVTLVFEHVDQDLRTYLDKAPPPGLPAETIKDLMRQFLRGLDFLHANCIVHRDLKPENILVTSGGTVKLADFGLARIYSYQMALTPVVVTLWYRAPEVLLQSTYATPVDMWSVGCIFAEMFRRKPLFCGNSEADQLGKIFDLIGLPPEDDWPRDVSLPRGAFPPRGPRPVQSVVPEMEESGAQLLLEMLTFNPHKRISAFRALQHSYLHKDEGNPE
Chain of pCdk4:cyclinD (P24385 whole entry partner): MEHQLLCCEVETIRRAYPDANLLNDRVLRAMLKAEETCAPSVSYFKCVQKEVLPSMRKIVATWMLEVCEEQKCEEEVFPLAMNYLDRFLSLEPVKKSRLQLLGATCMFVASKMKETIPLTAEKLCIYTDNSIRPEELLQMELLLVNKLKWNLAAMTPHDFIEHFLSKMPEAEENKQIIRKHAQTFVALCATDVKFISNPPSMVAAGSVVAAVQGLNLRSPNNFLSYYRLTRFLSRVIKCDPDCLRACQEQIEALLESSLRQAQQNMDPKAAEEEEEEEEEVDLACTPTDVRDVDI

For `Nc1ncnc2c1ncn2[C@@H]1O[C@H](COP(=O)(O)OP(=O)(O)O)[C@@H](O)[C@H]1O` [ADP], which “conformational effect on the A-loop (DEER)” value (Cdk2 [1]; monomeric Cdk2, inhibitor 250 µM) is on record?
The value was “promoted the Aloop-out state”.

Which results are given for `CCN1CCN(Cc2ccc(Nc3ncc(F)c(-c4cc(F)c5nc(C)n(C(C)C)c5c4)n3)nc2)CC1` [abemaciclib]?
Cdk1 substrate phosphorylation in cells (cells): blocks Cdk1 substrate phosphorylation; cell cycle effect in cells (cells): triggers a G2 arrest; potency for Cdk4 compared with palbociclib or ribociclib (pCdk4:cyclinD): greater potency

Which results are given for `CC(=O)c1c(C)c2cnc(Nc3ccc(N4CCNCC4)cn3)nc2n(C2CCCC2)c1=O` [palbociclib]?
effect on the Aloop-in/out equilibrium (FRET) (Cdk2 [2]; Fig. 4d): did not promote the Aloop-out state; binding cooperativity with cyclin (in words) (Cdk2 [2]; Fig. 4d, cyclinA): lacked substantial binding cooperativity with cyclin

Which “binding cooperativity between inhibitor and cyclin” value (Cdk2 [2]) does the source give for `CN1CC[C@H](c2c(O)cc(O)c3c(=O)cc(-c4ccccc4Cl)oc23)[C@H](O)C1` [flavopiridol] here?
The value was 50 fold.

And the “conformational effect on the αC-helix (DEER)” value (Cdk2 [3])?
The value was “population shifts toward the αC-in state”.

And the “conformational effect on the A-loop (DEER)” value (Cdk2 [4])?
Its value is “promoted the Aloop-out2 subpopulation”.

What about the “conformational effect on the A-loop (DEER)” value (Cdk2 [1]) of the same molecule?
Its value is “increased the Aloop-out1 subpopulation”.

With `CN(C)C(=O)c1cc2cnc(Nc3ccc(N4CCNCC4)cn3)nc2n1C1CCCC1` [ribociclib] as the molecule, how does the “binding cooperativity with cyclin (in words)” value (Cdk2 [2]) read?
Its value is “lacked substantial binding cooperativity with cyclin”.

And the “effect on the Aloop-in/out equilibrium (FRET)” value (Cdk2 [2])?
Its value is “did not promote the Aloop-out state”.
